Reference: patent US10144732B2 (BIOGEN MA INC., priority 2014, dated 2018)

Molecular target: T1, Human ATX protein (Homo sapiens, UniProt Q13822)
T1 construct: made in house
Assay: ATX biochemical assay (FRET, FS-3 substrate)
Conditions: FRET assay, FS-3 2 μM, ATX 1.0 μg/mL, 30 minutes preincubation, 2 hours reaction at room temperature; read-out: IC50
In short: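 In-house human ATX (1.0 μg/mL final) was preincubated with compound for 30 min at room temperature in Tris buffer pH 7.4 with 1 mg/mL fatty acid free-BSA. FS-3 substrate (2 μM final) was then hydrolysed for 2 hours at room temperature, protected from light, and read as fluorescence at ex 485/em 538 nm.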

SMILES | IC50 [µM]
CCOC(=O)[C@H]1CC[C@H](CC(=O)N2CCc3c(-c4ccccc4)nn(Cc4ccc(F)cc4)c3C2)CC1 [Example 1-44, trans-Ethyl 4-(2-(1-(4-fluorobenzyl)-3-phenyl-4,5-dihydro-1H-pyrazolo[3,4-c]pyridin-6(7H)-yl)-2-oxoethyl)cyclohexanecarboxylate] | ≤ 0.1
CCOC(=O)[C@H]1CC[C@H](CC(=O)N2CCc3c(C(F)(F)F)nn(Cc4ccsc4)c3C2)CC1 [Example 1-45, trans-Ethyl-4-(2-oxo-2-(1-(thiophen-3-ylmethyl)-3-(trifluoromethyl)-4,5-dihydro-1H-pyrazolo[3,4-c]pyridin-6(7H)-yl)ethyl)cyclohexanecarboxylate] | ≤ 0.1
CCOC(=O)[C@H]1CC[C@H](CC(=O)N2CCc3c(C(F)(F)F)nn(Cc4cccs4)c3C2)CC1 [Example 1-46, trans-Ethyl-4-(2-oxo-2-(1-(thiophen-2-ylmethyl)-3-(trifluoromethyl)-4,5-dihydro-1H-pyrazolo[3,4-c]pyridin-6(7H)-yl)ethyl)cyclohexanecarboxylate] | ≤ 0.1
CCOC(=O)[C@H]1CC[C@H](CC(=O)N2CCc3c(C(F)(F)F)nn(Cc4cncs4)c3C2)CC1 [Example 1-47, trans-Ethyl 4-(2-oxo-2-(1-(thiazol-5-ylmethyl)-3-(trifluoromethyl)-4,5-dihydro-1H-pyrazolo[3,4-c]pyridin-6(7H)-yl)ethyl)cyclohexanecarboxylate] | ≤ 0.1
CCOC(=O)[C@H]1CC[C@H](CC(=O)N2CCc3c(C(F)(F)F)nn(CC4CCC(C)CC4)c3C2)CC1 (stereo partly drawn) [Example 1-48, trans-Ethyl 4-(2-(1-((4-methylcyclohexyl)methyl)-3-(trifluoromethyl)-4,5-dihydro-1H-pyrazolo[3,4-c]pyridin-6(7H)-yl)-2-oxoethyl) cyclohexanecarboxylate] | ≤ 0.1
CCOC(=O)[C@H]1CC[C@H](CC(=O)N2CCc3c(C(F)(F)F)nn(Cc4ccc(F)cc4F)c3C2)CC1 [Example 1-50, trans-Ethyl 4-(2-(1-(2,4-difluorobenzyl)-3-(trifluoromethyl)-4,5-dihydro-1H-pyrazolo[3,4-c]pyridin-6(7H)-yl)-2-oxoethyl)cyclohexanecarboxylate] | ≤ 0.1
CCOC(=O)[C@H]1CC[C@H](CC(=O)N2CCc3c(C(F)(F)F)nn(Cc4ccc(Cl)cc4F)c3C2)CC1 [Example 2-1, trans-Ethyl 4-(2-(1-(4-chloro-2-fluorobenzyl)-3-(trifluoromethyl)-4,5-dihydro-1H-pyrazolo[3,4-c]pyridin-6(7H)-yl)-2-oxoethyl)cyclohexanecarboxylate] | ≤ 0.1
CCOC(=O)[C@H]1CC[C@@H](CC(=O)N2CCc3c(C(F)(F)F)nn(Cc4ccc(Cl)cc4F)c3C2)CC1 [Example 2-2, cis-Ethyl 4-(2-(1-(4-chloro-2-fluorobenzyl)-3-(trifluoromethyl)-4,5-dihydro-1H-pyrazolo[3,4-c]pyridin-6(7H)-yl)-2-oxoethyl)cyclohexanecarboxylate] | ≤ 0.1
CCOC(=O)[C@H]1CC[C@H](CC(=O)N2CCc3c(C(F)(F)F)nn(Cc4cc(F)cc(Cl)c4)c3C2)CC1 [Example 2-3, trans-Ethyl 4-(2-(1-(3-chloro-5-fluorobenzyl)-3-(trifluoromethyl)-4,5-dihydro-1H-pyrazolo[3,4-c]pyridin-6(7H)-yl)-2-oxoethyl)cyclohexanecarboxylate] | ≤ 0.1
CCOC(=O)[C@H]1CC[C@@H](CC(=O)N2CCc3c(C(F)(F)F)nn(Cc4cc(F)cc(Cl)c4)c3C2)CC1 [Example 2-4, cis-ethyl 4-(2-(1-(3-chloro-5-fluorobenzyl)-3-(trifluoromethyl)-4,5-dihydro-1H-pyrazolo[3,4-c]pyridin-6(7H)-yl)-2-oxoethyl)cyclohexanecarboxylate] | ≤ 0.1
COC(=O)[C@H]1CC[C@@H](NC(=O)N2CCc3c(C(F)(F)F)nn(Cc4ccc(Cl)cc4F)c3C2)CC1 [Example 3-1, cis-Methyl 4-(1-(4-chloro-2-fluorobenzyl)-3-(trifluoromethyl)-4,5,6,7-tetrahydro-1H-pyrazolo[3,4-c]pyridine-6-carboxamido)cyclohexanecarboxylate] | ≤ 0.1
